Three compounds from patent publication US9732119B2, “Immunomodulators” (BRISTOL-MYERS SQUIBB COMPANY, priority 2014, dated 2017) can be followed below.

The target in this assay is T1, PD-1-Ig binding to PD-L1-TVMV-His (PD-L1-His) (Homo sapiens, UniProt Q9NZQ7).
T1 construct: hPDL1(19-239)-TVMV-His; made in house; host or cells: HEK293T cells
Description: PD-1/PD-L1 Homogenous Time-Resolved Fluorescence (HTRF) binding assay. Conditions: PD-1-Ig (20 nM) / PD-L1-His (10 nM); range classes. Put shortly: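 HTRF competition: compound pre-incubated 15 min with PD-L1-His (10 nM final), then PD-1-Ig (20 nM final) added for 15 min in dPBS, 0.1% BSA, 0.05% Tween-20. Detection with Eu-cryptate anti-Ig (1 nM) and APC anti-His (20 nM) antibodies.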
Background: In TR-FRET formats the signal depends on donor and acceptor labels being close together.

Positions of bridges follow the written chain, without caps; N, C: chain ends. Non-standard residues stand in square brackets, D forms with d. Residues, ends and D or L forms follow the SMILES beside them. Trp(1-CH2COOH) = N[C@@H](Cc1cn(CC(=O)O)c2ccccc12)C(=O)O; Phe(4-Cl) = N[C@@H](Cc1ccc(Cl)cc1)C(=O)O; Phe(4-Me) = Cc1ccc(C[C@H](N)C(=O)O)cc1; Hyp = O=C(O)[C@@H]1C[C@@H](O)CN1; NMeNle = CCCC[C@H](NC)C(=O)O; dOrn = NCCC[C@@H](N)C(=O)O; Pip = O=C(O)[C@@H]1CCCCN1; Dab = NCC[C@H](N)C(=O)O; Dap = NC[C@H](N)C(=O)O; Ava = NCCCCC(=O)O

T1 sequence (Q9NZQ7 with tags, fused parts or gaps): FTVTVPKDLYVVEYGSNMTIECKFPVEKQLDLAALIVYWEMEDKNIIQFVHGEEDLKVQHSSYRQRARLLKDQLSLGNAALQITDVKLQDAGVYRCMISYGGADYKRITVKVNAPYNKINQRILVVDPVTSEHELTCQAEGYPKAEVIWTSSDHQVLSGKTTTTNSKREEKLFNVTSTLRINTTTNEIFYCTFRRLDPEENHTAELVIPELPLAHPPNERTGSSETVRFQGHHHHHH

For orientation: IC50 means the point on the concentration scale where inhibition reaches its midpoint. On to `CCCC[C@H]1C(=O)N(C)[C@@H](CCCC)C(=O)N[C@@H](CC(C)C)C(=O)N[C@H](C(N)=O)CNCC(=O)N[C@@H](Cc2ccc(F)cc2)C(=O)N2CCCC[C@H]2C(=O)N[C@@H](CC(N)=O)C(=O)N2CCCC2C(=O)N[C@@H](Cc2c[nH]cn2)C(=O)N[C@@H](CCC(N)=O)C(=O)N2C[C@H](O)C[C@H]2C(=O)N[C@@H](Cc2c[nH]c3ccccc23)C(=O)N[C@@H](C)C(=O)N[C@@H](Cc2cn(CC(=O)O)c3ccccc23)C(=O)N1C` (stereo partly drawn) [Example 9053], for which the concentration for half-maximal inhibition (IC50) is 1 to 9.9 nM.
Compound `CCCC[C@H]1C(=O)N(C)[C@@H](CCCC)C(=O)N[C@@H](CC(C)C)C(=O)NCCCCC(=O)N[C@@H](Cc2ccc(Cl)cc2)C(=O)N2CCCC[C@H]2C(=O)N[C@@H](CC(N)=O)C(=O)N2CCC[C@H]2C(=O)N[C@@H](CN)C(=O)N[C@@H](CCC(=O)O)C(=O)N2C[C@H](O)C[C@H]2C(=O)N[C@@H](Cc2c[nH]c3ccccc23)C(=O)N[C@@H](CCN)C(=O)N[C@@H](Cc2cn(CC(=O)O)c3ccccc23)C(=O)N1C` [Example 10544] (cyclo([Ava][Phe(4-Cl)][Pip]NP[Dap]E[Hyp]W[Dab][Trp(1-CH2COOH)][NMeNle][NMeNle]L)) had an IC50 of 1 to 9.9 nM.
Consider `CCCC[C@H]1C(=O)N(C)[C@@H](CCCC)C(=O)N[C@@H](CC(C)C)C(=O)NCCC[C@@H](N)C(=O)N[C@@H](Cc2ccc(C)cc2)C(=O)N2CCCC[C@H]2C(=O)N[C@@H](CC(N)=O)C(=O)N2CCC[C@H]2C(=O)N[C@@H](CN)C(=O)N[C@@H](CC(C)C)C(=O)N2C[C@H](O)C[C@H]2C(=O)N[C@@H](Cc2c[nH]c3ccccc23)C(=O)N[C@@H](CCN)C(=O)N[C@@H](Cc2cn(CC(=O)O)c3ccccc23)C(=O)N1C` [Example 10567] (H-[dOrn][Phe(4-Me)][Pip]NP[Dap]L[Hyp]W[Dab][Trp(1-CH2COOH)][NMeNle][NMeNle]L; lactam 1-C), for which the IC50 fell in the range of 10 to 99 nM.
